1 molecule from US20230390297A1, “USE OF NUCLEOTIDE SYNTHESIS INHIBITORS FOR TARGETED THERAPY IN MLL3/4 COMPASS MUTANT CANCER” (priority 2022, published 2023) can be followed below.

Assay [1] relates to BBN induced bladder cancer, MLL4 mutant tumors. In words: BBN induced bladder cancer mouse model. It counts as in vivo, C57BL/6J male mice. The following applies: 15 mg/kg intraperitoneal twice a week for 12 weeks; Fisher's exact test, p=0.037. The text has this:
N-butyl-N-(4-hydroxybutyl)-nitrosamine (BBN) is a carcinogen, that mimics the tobacco use in human. When administered to C57/B6 male mice in drinking water for at least 20 weeks, causes muscle invasive bladder tumors (MIBC) (1). Besides, 70% of Kmt2d/MLL4 is mutated in BBN mouse model, mimicking high MLL4 mutation rate (and low UTX mutation rate) found in […] (1, 2). Thus, we believe that this is a valuable system where we could examine the effect of lometrexol in bladder cancer based on the MLL4 mutation stratification.
Experiment design: Thirty 7-week-old C57BL/6J male mice were used in our study to induce bladder cancer by feeding them with 0.1% BBN containing water for 6 weeks. The mice were then randomized into two groups: DMSO (n=15) or lometrexol treatment (n=15) and were given intraperitoneal injections of the respective treatments twice a week at a dose of 15 mg/kg for 12 weeks. At the end of the treatment period, the bladder tissues of the mice were harvested for H&E staining and RNA isolation. Each mouse's tumor grade was assessed, and RNA samples were analyzed for mutations in the kmt2d/MLL4 gene through mRNA-seq. Finally, we compared the MLL4 genotype and treatment to the tumor stage to assess the effectiveness of the treatment.

A further assay concerns MLL3/4 ΔSET cells. Nature of the assay: CellTiter-Glo viability assay in WT, MLL3/4 ΔSET and MLL3/4 KO cells. It counts as cell-based, mouse. As to conditions: 0-2.5 μM LTX, 72 hours. An excerpt:
FIG. 11. […] (A) Western blot showing MLL4, MLL3, NCOA6, UTX, RbBP5 and ASH2L protein levels in WT, MLL3/4 ASET and MLL3/4 KO cells with Hsp90 as the loading control. Bulk levels of histone H3K4me1, H3K4me2, H3K4me3 and H3K27Ac were also shown. N, N-terminus; C, C-terminus. mESCs harboring deletion of the SET domains of both MLL3 and MLL4 (referred to as MLL3/4 ΔSET) were generated in our previous studies (20). (B) Western blot showing nuclear and cytoplasmic MLL4, UTX, NCOA6 and RBBP5 protein levels after cell fractionation, with MLL1 and Hsp90 serving as nuclear and cytoplasmic loading control. (C) WT, MLL3/4 ΔSET and MLL3/4 KO cells were treated with 0-2.5 μM lometrexol (LTX) for 72 hours. CellTiter-Glo® luminescent cell viability assay was performed to determine the percentage of inhibition.
A general note: In ATP-based viability assays light output follows the ATP content of the culture.

For assay [2], the system named is RKO, HCT116, DLD1, Caco2, HT55 and SW1417 cells. Nature of the assay: Western blot of cell cycle and apoptosis markers in colorectal cancer cells. The assay is classed as cell-based, human. The following applies: 1 μM LTX, 24 hours; MLL4 mutant vs WT cells. Here is the method: FIG. 5. MLL4 mutant colorectal cancer cells are selectively sensitive to lometrexol treatment. (A) 100 μL of 0.5×10^5 cells/mL cells were seeded in 96-well plates one day before treatment. Cells were treated with 0-30 μM lometrexol (LTX) with 3× fold dilution for 72 hours. CellTiter-Glo® luminescent cell viability assay was performed to determine the percentage of inhibition under these conditions. The line plot compares sensitivity difference of all cell lines tested. (B) RKO, HCT116, DLD1, Caco2, HT55 and SW1417 cells were treated with DMSO or 1 μM LTX for 24 hours and whole cell lysates were used for western blot against cell cycle (H3 Ser10-p, CDT1, CyclinB 1, Geminin, CyclinEl, CyclinA2, p-cdc2) and apoptosis (PARP, Caspase3) markers using Hsp90 and I3-tubulin as loading control. […] (F) A subset of representative terms from the full cluster were selected and converted into a network layout. Each term is represented by a circle node, where its size is proportional to the number of input genes fall under that term, and its color represent its cluster identity. Terms with a similarity score>0.3 are linked by an edge (the thickness of the edge represents the similarity score). The network is visualized with Cytoscape with “force-directed” layout and with edge bundled for clarity. One term from each cluster is selected to have its term description shown as label. […]
A general note: Immunoblotting shows a protein as a band on a membrane.

For assay [3], the system named is MLL4 mutant colorectal cancer cells (SW480, DLD1, HCT116, RKO). In words: CellTiter-Glo viability assay in MLL4 wild type and MLL4 mutant colorectal cell lines. The assay is classed as cell-based, human. The following applies: 72 hours; LTX 0-30 μM, Piericidin A 0-10 μM, Phenformin 0-30 mM.

For `Nc1nc2c(c(=O)[nH]1)C[C@@H](CCc1ccc(C(=O)N[C@@H](CCC(=O)O)C(=O)O)cc1)CN2` [lometrexol, (2S)-2-[[4-[2-[(6R)-2-amino-4-oxo-5,6,7,8-tetrahydro-3H-pyrido[2,3-d]pyrimidin-6-yl]ethyl]benzoyl]amino]pentanedioic acid], the “tumor stage of mice with MLL4 mutant tumors compared with other groups” value in assay [1] was “significant lowered tumor stages”. For the same molecule, in the assay with MLL3/4 ΔSET cells, the “sensitivity of MLL3/4 ΔSET cells compared with WT mESCs (percentage of inhibition)” value was “indistinguishable sensitivity to LTX in comparison to WT mESCs”. Moreover, the “cell cycle markers H3 Ser10-p, CDT1, CyclinB1 (western blot)” value in assay [2] was “significant downregulation of histone H3 Serine10 phosphorylation (H3 Ser10-p), CDT1 and CyclinB1 was observed only in MLL4 mutant cells but not WT cells”. For the same molecule, the “sensitivity of MLL4 mutant cells compared with MLL4 wild type cells (growth inhibition)” value in assay [3] is recorded as “selectively more sensitive”.
